Patent publication US11707447B1

What was measured:
5-HT1A receptor = biological target: T1, 5-HT1A receptor (Homo sapiens, UniProt P08908); test: cAMP-Glo assay in +5-HT1A / -5-HT1A CHO-K1 cells; type: cell-based; settings: forskolin-stimulated +5-HT1A vs -5-HT1A cells, increasing ligand
T1 construct: host or cells: CHO-K1 (co-expressing Ga15)
T1 sequence (P08908 1-422): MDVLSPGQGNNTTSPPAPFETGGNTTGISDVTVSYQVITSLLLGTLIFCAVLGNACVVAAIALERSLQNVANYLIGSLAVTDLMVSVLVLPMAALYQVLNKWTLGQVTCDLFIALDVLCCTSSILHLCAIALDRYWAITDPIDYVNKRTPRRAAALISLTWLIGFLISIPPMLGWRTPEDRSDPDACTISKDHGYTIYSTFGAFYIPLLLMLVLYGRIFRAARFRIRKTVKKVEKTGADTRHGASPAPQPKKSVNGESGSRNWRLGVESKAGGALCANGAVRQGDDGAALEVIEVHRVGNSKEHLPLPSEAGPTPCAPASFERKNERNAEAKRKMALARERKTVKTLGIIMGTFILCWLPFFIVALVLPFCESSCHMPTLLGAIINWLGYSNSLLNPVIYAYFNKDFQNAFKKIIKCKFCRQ

5-HT2A receptor = 5-HT2A receptor (Homo sapiens, UniProt P28223); test: [3H]ketanserin competition radioligand binding assay (SPA); settings: control ligands
5-HT2A receptor, sequence (P28223 whole entry): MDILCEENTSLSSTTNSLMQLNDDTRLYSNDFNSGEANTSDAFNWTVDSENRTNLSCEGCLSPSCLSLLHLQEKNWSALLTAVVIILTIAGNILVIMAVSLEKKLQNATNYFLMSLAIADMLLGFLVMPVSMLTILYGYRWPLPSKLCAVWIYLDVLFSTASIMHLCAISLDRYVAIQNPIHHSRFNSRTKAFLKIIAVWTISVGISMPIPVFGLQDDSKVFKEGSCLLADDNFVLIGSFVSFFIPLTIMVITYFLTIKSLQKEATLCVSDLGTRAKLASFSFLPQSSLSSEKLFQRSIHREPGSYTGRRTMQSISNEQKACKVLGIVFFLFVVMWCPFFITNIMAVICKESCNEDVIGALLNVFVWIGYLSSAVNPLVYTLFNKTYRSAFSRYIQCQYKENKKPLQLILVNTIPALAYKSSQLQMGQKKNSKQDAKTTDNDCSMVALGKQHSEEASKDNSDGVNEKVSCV

Row | SMILES | cAMP level / 5-HT1A receptor modulation (in words) (5-HT1A receptor) | 5-HT2A competition binding (in words) (5-HT2A receptor)
1 | NCCc1c[nH]c2ccc(O)cc12 [serotonin] | reduction in cAMP levels | 
2 | CN(C)CCc1c[nH]c2cccc(O)c12 [psilocin] | reduction in cAMP levels | positive control (binding)
